According to patent US20250368649A1, “TETRAHYDROPYRIDOPYRIMIDINE PAN-KRAS INHIBITORS” (Mirati Therapeutics, Inc., priority 2022, published 2025):

Assays:
KRas Q61H = KRas Q61H (Homo sapiens, UniProt P01116, Q61H); experiment: KRas binding assay (TR-FRET displacement), KRas Q61H; details: TR-FRET displacement
KRas G12A = KRas G12A (Homo sapiens, UniProt P01116, G12A); type: binding; details: TR-FRET displacement, read-out: Binding to KRas (IC50 nM) G12A
KRas G12S = KRas G12S (Homo sapiens, UniProt P01116, G12S); type: binding; details: TR-FRET displacement, read-out: Binding to KRas (IC50 nM) G12S
KRas G12S, sequence (P01116 1-169 isoform P01116-2 G12S): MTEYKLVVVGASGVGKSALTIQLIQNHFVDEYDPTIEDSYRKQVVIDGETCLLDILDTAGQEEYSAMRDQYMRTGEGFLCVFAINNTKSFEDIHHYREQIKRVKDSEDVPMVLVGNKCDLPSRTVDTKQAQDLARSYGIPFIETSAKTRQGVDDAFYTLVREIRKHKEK

ASPC1 cells = experiment: Inhibition of KRas-mediated phosphorylation of ERK (Cisbio HTRF pERK), ASPC1 cells; type: cell-based; details: Homo sapiens, AsPC-1 cells; for IC50: ASPC1, 3 h, 3 hr compound incubation, Cisbio pERK HTRF; for inhibition at 0.1 µM: ASPC1, single point at 100 nM, 3 hrs compound incubation
KRas G12R = KRas G12R (Homo sapiens, UniProt P01116, G12R); experiment: biochemical; details: Binding to KRas (IC50 nM) G12R, TR-FRET displacement, KRas G12R
KRas G12R, sequence (P01116 1-169 isoform P01116-2 G12R): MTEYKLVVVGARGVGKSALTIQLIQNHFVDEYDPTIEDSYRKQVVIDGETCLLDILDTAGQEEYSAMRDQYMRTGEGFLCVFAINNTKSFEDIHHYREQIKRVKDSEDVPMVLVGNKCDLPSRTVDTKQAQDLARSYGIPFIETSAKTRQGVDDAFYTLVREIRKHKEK

KRas G13D = KRas G13D (Homo sapiens, UniProt P01116, G13D); type: binding; details: TR-FRET displacement, read-out: Binding to KRas (IC50 nM) G13D
KRas G13D, sequence (P01116 1-169 isoform P01116-2 G13D): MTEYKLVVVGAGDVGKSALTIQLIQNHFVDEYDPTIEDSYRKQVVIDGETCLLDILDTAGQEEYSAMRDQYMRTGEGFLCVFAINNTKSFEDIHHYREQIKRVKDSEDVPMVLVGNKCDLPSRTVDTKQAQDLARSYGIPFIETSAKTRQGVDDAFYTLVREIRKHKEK

KRas G12C = KRas G12C (Homo sapiens, UniProt P01116, G12C); type: binding; details: TR-FRET displacement, read-out: Binding to KRas (IC50 nM) G12C
KRas G12C, sequence (P01116 1-169 isoform P01116-2 G12C): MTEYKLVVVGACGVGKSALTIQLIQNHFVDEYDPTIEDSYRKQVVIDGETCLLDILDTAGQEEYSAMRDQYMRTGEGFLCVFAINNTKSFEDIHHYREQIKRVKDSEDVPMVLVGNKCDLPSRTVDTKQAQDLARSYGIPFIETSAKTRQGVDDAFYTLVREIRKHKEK

KRas G12V = KRas G12V (Homo sapiens, UniProt P01116, G12V); experiment: biochemical; details: Binding to KRas (IC50 nM) G12V, TR-FRET displacement, KRas G12V
KRas G12V, sequence (P01116 1-169 isoform P01116-2 G12V): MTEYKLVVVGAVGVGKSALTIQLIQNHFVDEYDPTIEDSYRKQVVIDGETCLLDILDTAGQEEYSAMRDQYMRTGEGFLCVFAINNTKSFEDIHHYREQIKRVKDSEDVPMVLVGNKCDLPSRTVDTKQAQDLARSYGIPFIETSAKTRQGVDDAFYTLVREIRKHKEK

H727 cells = experiment: Inhibition of KRas-mediated phosphorylation of ERK (Cisbio HTRF pERK), H727 cells; type: cell-based; details: Homo sapiens; for IC50: NCI-H727, 3 h, 3 hr compound incubation, Cisbio pERK HTRF; for inhibition at 0.1 µM: NCI-H727, single point at 100 nM, 3 hrs compound incubation
KRas G12D = KRas G12D (Homo sapiens, UniProt P01116, G12D); experiment: biochemical; details: Binding to KRas (IC50 nM) G12D, TR-FRET displacement, KRas G12D
KRas G12D, sequence (P01116 1-169 isoform P01116-2 G12D): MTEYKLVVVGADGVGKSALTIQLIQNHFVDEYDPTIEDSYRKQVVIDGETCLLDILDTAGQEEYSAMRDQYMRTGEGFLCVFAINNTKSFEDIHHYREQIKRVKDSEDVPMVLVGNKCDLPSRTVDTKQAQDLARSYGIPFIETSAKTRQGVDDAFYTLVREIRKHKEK

KRas WT = KRas WT (Homo sapiens, UniProt P01116); experiment: KRas binding assay (TR-FRET displacement), KRas WT; details: TR-FRET displacement
KRas WT, sequence (P01116 1-169 isoform P01116-2): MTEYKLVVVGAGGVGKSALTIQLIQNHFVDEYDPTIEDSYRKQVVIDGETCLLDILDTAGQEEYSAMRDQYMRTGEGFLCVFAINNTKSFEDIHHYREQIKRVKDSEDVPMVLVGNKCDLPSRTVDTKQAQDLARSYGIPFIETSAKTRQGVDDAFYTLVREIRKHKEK

KRas Q61H, sequence (P01116 1-169 isoform P01116-2 Q61H): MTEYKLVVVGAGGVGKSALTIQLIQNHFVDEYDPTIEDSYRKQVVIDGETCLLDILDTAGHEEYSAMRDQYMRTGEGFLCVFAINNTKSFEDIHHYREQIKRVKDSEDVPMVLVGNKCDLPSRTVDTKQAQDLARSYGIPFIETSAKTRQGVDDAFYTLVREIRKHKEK
KRas G12A, sequence (P01116 1-169 isoform P01116-2 G12A): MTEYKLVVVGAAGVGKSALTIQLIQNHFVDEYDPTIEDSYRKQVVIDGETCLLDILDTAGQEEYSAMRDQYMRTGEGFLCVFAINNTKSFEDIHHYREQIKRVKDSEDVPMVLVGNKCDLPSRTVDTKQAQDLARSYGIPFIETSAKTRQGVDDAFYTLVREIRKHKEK

Compound	IC50 (KRas Q61H) [nM]	IC50 (KRas G12A) [nM]	IC50 (KRas G12S) [nM]	IC50 (ASPC1 cells) [nM]	IC50 (KRas G12R) [nM]	IC50 (KRas G13D) [nM]	IC50 (KRas G12C) [nM]	IC50 (KRas G12V) [nM]	IC50 (H727 cells) [nM]	IC50 (KRas G12D) [nM]	IC50 (KRas WT) [nM]	inhibition at 0.1 µM (ASPC1 cells) [%]	inhibition at 0.1 µM (H727 cells) [%]
Oc1cc(Cl)c(C2CC2)c(N2CCc3c(nc(OCC45CCCN4CCC5)nc3N3CC4CC(O)C(C4)C3)C2)c1 (stereo not shown) [Example 444, 3-(7-(3-chloro-2-cyclopropyl-5-hydroxyphenyl)-2-((tetrahydro-1H-pyrrolizin-7a(5H)-yl)methoxy)-5,6,7,8-tetrahydropyrido[3,4-d]pyrimidin-4-yl)-3-azabicyclo[3.2.1]octan-6-ol]	87	52	42	8870	40	53	64	38	5680	133	50		
Cc1cc2[nH]ncc2c(N2CCc3c(nc(OCC45CCCN4CCC5)nc3N3CCOCC(C)(O)C3)C2)c1C (stereo not shown) [Example 460, 4-(7-(5,6-dimethyl-1H-indazol-4-yl)-2-((hexahydro-1H-pyrrolizin-7a-yl)methoxy)-5,6,7,8-tetrahydropyrido[3,4-d]pyrimidin-4-yl)-6-methyl-1,4-oxazepan-6-ol]	188	142	173	1620	216	169	146	108	5360	67	137		
Cc1cc2[nH]ncc2c(N2CCc3c(nc(OCC45CCCN4CCC5)nc3N3CCCC4(CC(O)C4)C3)C2)c1C (single isomer, unassigned; isomer 1) [Example 453, 6-(7-(5,6-dimethyl-1H-indazol-4-yl)-2-((hexahydro-1H-pyrrolizin-7a-yl)methoxy)-5,6,7,8-tetrahydropyrido[3,4-d]pyrimidin-4-yl)-6-azaspiro[3.5]nonan-2-ol (isomer 1)]	1150	523	616	9380	680	1150	464	262	5760	604	826		
O=C1NC(=O)C2(CCCN(c3nc(OCC45CCCN4CCC5)nc4c3CCN(c3cc(O)cc(Cl)c3C3CC3)C4)C2)N1 (stereo not shown) [Example 439, 7-(7-(3-chloro-2-cyclopropyl-5-hydroxyphenyl)-2-((tetrahydro-1H-pyrrolizin-7a(5H)-yl)methoxy)-5,6,7,8-tetrahydropyrido[3,4-d]pyrimidin-4-yl)-1,3,7-triazaspiro[4.5]decane-2,4-dione]	< 2	< 2	< 2	> 10000	< 2	< 2	< 2	< 2	6240	2	< 2		
Cc1cc2[nH]ncc2c(N2CCc3c(nc(OCC45CCCN4CCC5)nc3N3CC4C(=O)NC(=O)C4C3)C2)c1C (stereo not shown) [Example 458, 5-(7-(5,6-dimethyl-1H-indazol-4-yl)-2-((hexahydro-1H-pyrrolizin-7a-yl)methoxy)-5,6,7,8-tetrahydropyrido[3,4-d]pyrimidin-4-yl)tetrahydropyrrolo[3,4-c]pyrrole-1,3(2H,3aH)-dione]	179	148	52	> 10000	145	168	153	76	> 10000	48	143		
Cc1cc2[nH]ncc2c(N2CCc3c(nc(OC[C@@]45CCCN4C[C@H](F)C5)nc3N3CCC[C@]4(C3)NC(=O)NC4=O)C2)c1C [Example 450, (R)-7-(7-(5,6-dimethyl-1H-indazol-4-yl)-2-(((2R,7aS)-2-fluorohexahydro-1H-pyrrolizin-7a-yl)methoxy)-5,6,7,8-tetrahydropyrido[3,4-d]pyrimidin-4-yl)-1,3,7-triazaspiro[4.5m] odecane-2,4-dione]	5	8	7	3490	3	6	7	3	1270	5	8		
Cc1cc2[nH]ncc2c(N2CCc3c(nc(OCC45CCCN4CCC5)nc3N3CCCC4(CNC(=O)N4)C3)C2)c1C (stereo not shown) [Example 461, 7-(7-(5,6-dimethyl-1H-indazol-4-yl)-2-((hexahydro-1H-pyrrolizin-7a-yl)methoxy)-5,6,7,8-tetrahydropyrido[3,4-d]pyrimidin-4-yl)-1,3,7-triazaspiro[4.5]decan-2-one]	26	22	23	> 10000	22	26	19	12	> 10000	11	23		
Cc1cc2[nH]ncc2c(N2CCc3c(nc(OCC45CCCN4CCC5)nc3N3CCCn4nc(C(=O)N(C)C)cc4C3)C2)c1C [Example 451, 5-(7-(5,6-dimethyl-1H-indazol-4-yl)-2-((hexahydro-1H-pyrrolizin-7a-yl)methoxy)-5,6,7,8-tetrahydropyrido[3,4-d]pyrimidin-4-yl)-N,N-dimethyl-5,6,7,8-tetrahydro-4H-pyrazolo[1,5-a][1,4]diazepine-2-carboxamide]	1060	387	243	> 10000	62	1160	209	26	> 10000	11	777		
O=C1NCC2(CCCN(c3nc(OCC45CCCN4CCC5)nc4c3CCN(c3cc(O)cc(Cl)c3C3CC3)C4)C2)N1 (stereo not shown) [Example 442, 7-(7-(3-chloro-2-cyclopropyl-5-hydroxyphenyl)-2-((tetrahydro-1H-pyrrolizin-7a(5H)-yl)methoxy)-5,6,7,8-tetrahydropyrido[3,4-d]pyrimidin-4-yl)-1,3,7-triazaspiro[4.5]decan-2-one]	2	< 2	3	> 10000	3	4	< 2	3	> 10000	< 2	3	9	-4
O=C1CC2(CCCN(c3nc(OCC45CCCN4CCC5)nc4c3CCN(c3cc(O)cc(Cl)c3C3CC3)C4)C2)N1 (stereo not shown) [Example 443, 6-(7-(3-chloro-2-cyclopropyl-5-hydroxyphenyl)-2-((tetrahydro-1H-pyrrolizin-7a(5H)-yl)methoxy)-5,6,7,8-tetrahydropyrido[3,4-d]pyrimidin-4-yl)-1,6-diazaspiro[3.5]nonan-2-one]	5	6	4	> 10000	4	8	3	3	8580	6	8	-16	-25
O=S1(=O)NCC2(CCCN(c3nc(OCC45CCCN4CCC5)nc4c3CCN(c3cc(O)cc(Cl)c3C3CC3)C4)C2)N1 (stereo not shown) [Example 438, 7-(7-(3-chloro-2-cyclopropyl-5-hydroxyphenyl)-2-((tetrahydro-1H-pyrrolizin-7a(5H)-yl)methoxy)-5,6,7,8-tetrahydropyrido[3,4-d]pyrimidin-4-yl)-2-thia-1,3,7-triazaspiro[4.5]decane 2,2-dioxide]	< 2	< 2	< 2	5610	< 2	< 2	< 2	< 2	8000	< 2	< 2	-4	-7
CCc1cccc2cccc(N3CCc4c(nc(OCC5(CN(C)C)CC5)nc4N(C)Cc4nnc5c(=O)n(C)ccn45)C3)c12 [Example 700, 3-(((2-((1-((dimethylamino)methyl)cyclopropyl)methoxy)-7-(8-ethylnaphthalen-1-yl)-5,6,7,8-tetrahydropyrido[3,4-d]pyrimidin-4-yl)(methyl)amino)methyl)-7-methyl-[1,2,4]triazolo[4,3-a]pyrazin-8(7H)-one]	577	474	399		687	374	251	452		1380	522		
